“Also recorded” adds a separate entry of the source. Read-outs that look alike come from different tables or passages of the source.
Key:
[1] = test system: male CD-1 mice; test: Social recognition test; format: in vivo, mouse; settings: 30 mg/kg EMPA or 20 mg/kg seltorexant IP; one-way ANOVA
Protocol: (§1) Vehicle comparison for these drugs consisted of 75% DMSO in sterile water alone. SR-9659 was dissolved in 20% DMSO in sterile water. Vehicle comparison for this drug consisted of 20% DMSO in water alone. All drugs were administered intraperitoneally (IP) 30 minutes before behavioral testing. All injection volumes were limited to 100 μl.
Mice were presented with two conspecific mice in a first (training) session, and then one of the two conspecific mice was replaced with an unfamiliar mouse in a second (test) session. The time spent by the test mouse investigating each conspecific mouse provided and index of social memory. This was calculated by subtracting the time spent with the novel mouse from the time spent with the familiar mouse.

[2] = test system: male CD-1 mice; test: Object placement test (spatial memory); format: in vivo, mouse; settings: 30 mg/kg EMPA or 20 mg/kg seltorexant IP; one-way ANOVA
Protocol: as §1
Mice were presented with two of the same object in a first (training) session, and then one of the two objects was moved to a different location in the arena during a second (test) session. The time spent investigating each object provided an index of spatial memory. This was calculated by subtracting the time spent with the object in the familiar location from the time spent with the object in the novel location.

[3] = test system: aggressive (AGG) CD-1 mice; test: Aggression conditioned place preference (CPP), systemic EMPA (Example 1); format: in vivo, mouse; settings: EMPA 30 mg/kg I.P., vs vehicle, between-subjects
Protocol: The aggression CPP protocol was carried out according to Golden et al. (6). Briefly, this task consisted of three phases: pre-test, acquisition (conditioning), and test. Mice were acclimated to the testing facility for 1 h before all testing. All phases were conducted under red light and sound-attenuated conditions. The CPP apparatus (Med Associates) consisted of two unique conditioning chambers with a neutral middle zone that allowed for unbiased entry into either conditioning chamber at the initiation of each trial. During the pre-test phase, mice were placed into the middle chamber of the conditioning apparatus and allowed to freely explore the apparatus for 20 min. There were no group differences in bias for either chamber, and conditioning groups were balanced in an unbiased fashion to account for pre-test preference. The acquisition phase consisted of three consecutive days with two conditioning trials each day for a total of 6 acquisition trials. Morning trials (between 8-10 AM) and afternoon trials (between 3-5 PM) consisted of experimental mice confined to one chamber for 10 min while in the presence or absence of a novel C57BL/6J intruder mouse. All groups were counterbalanced for the conditioning chamber. […] Total locomotor activity was also recorded to ensure equal exploratory behavior between groups. […]

[4] = test system: aggressive (AGG) CD-1 mice; test: Resident intruder (RI) test, acute systemic EMPA (Example 1); format: in vivo, mouse
Protocol: Aggression screening was performed as previously described by utilizing the resident intruder (RI) test (6). After a minimum of one week of habituation to home cages, experimental mice were exposed to a novel C57BL/6J intruder for 3 min daily over 3 consecutive days. Each intruder presentation was performed in the home cage of the experimental mouse between 12-3 PM daily under white light conditions. During RI sessions the cage top was removed to allow for unobstructed viewing and video recording of sessions. The duration and number of screening sessions were selected to prevent induction of stress- and anxiety-related behaviors in experimental CD-1 or F1 hybrid mice (6). All RI sessions were video recorded with a digital color video camera. Two blind observers recorded (1) the latency to initial aggression and (2) the total duration of aggression. The initiation of aggression was defined by the first clear physical antagonistic interaction initiated by the resident mouse (usually a bite), not including grooming or pursuit behavior. Aggression was considered completed when the resident mouse had reoriented away from the intruder following the initiation of attack. This definition allows for slight breaks (less than 5 s) in continuous physical interaction within an aggressive bout, assuming the resident mouse has remained oriented towards the intruder throughout. […]

[5] = test system: aggressive (AGG) male CD-1 mice; format: in vivo, mouse
Protocol: Aggression screening was performed as previously described by utilizing the resident intruder (RI) test (Golden et al., 2016b). After a minimum of one week of habituation to home cages, experimental mice were exposed to a novel C57BL/6J intruder for 3 min daily over 3 consecutive days. Each intruder presentation was performed in the home cage of the experimental mouse between 12-3 PM daily under white light conditions. During RI sessions the cage top was removed to allow for unobstructed viewing and video recording of sessions. The duration and number of screening sessions were selected to prevent induction of stress- and anxiety-related behaviors in experimental mice (Golden et al., 2016b). All RI sessions were video recorded with a digital color video camera. Two blind observers recorded (1) the latency to initial aggression and (2) the total duration of aggression. The initiation of aggression was defined by the first clear physical antagonistic interaction initiated by the resident mouse (usually a bite), not including grooming or pursuit behavior. Aggression was considered completed when the resident mouse had reoriented away from the intruder following the initiation of attack. This definition allows for slight breaks (less than 5 s) in continuous physical interaction within an aggressive bout, assuming the resident mouse has remained oriented towards the intruder throughout.
Vehicle comparison for these drugs consisted of 75% DMSO in sterile water alone. SR-9659 was dissolved in 20% DMSO in sterile water. Vehicle comparison for this drug consisted of 20% DMSO in water alone. All drugs were administered intraperitoneally (I.P.) 30 minutes before behavioral testing. All injection volumes were limited to 100 μl.
First, mice were screened for three consecutive days in the RI test. Only AGGs were selected for subsequent pharmacology experiments, as it was hypothesized that treatment with orexin antagonists would reduce aggression. […] 24 hours following the last RI test, mice were treated again with either drug or vehicle and anxiety and locomotion were assessed using the open field test.

[6] = test system: male CD-1 mice; test: Object recognition test; format: in vivo, mouse; settings: 30 mg/kg EMPA or 20 mg/kg seltorexant IP; one-way ANOVA
Protocol: as §1
Mice were presented with two different objects in a first (training) session, and then one of the two objects was replaced with a new object during a second (test) session. The time spent investigating each object provided an index of object recognition memory. This was calculated by subtracting the time spent with the familiar object from the time spent with the novel object.

[7] = cited from earlier work; for abuse potential: human, in vivo
[8] = target: T1, OX1R (Homo sapiens, UniProt O43613); settings: less potent; cited from earlier work
T1 sequence (O43613 1-425): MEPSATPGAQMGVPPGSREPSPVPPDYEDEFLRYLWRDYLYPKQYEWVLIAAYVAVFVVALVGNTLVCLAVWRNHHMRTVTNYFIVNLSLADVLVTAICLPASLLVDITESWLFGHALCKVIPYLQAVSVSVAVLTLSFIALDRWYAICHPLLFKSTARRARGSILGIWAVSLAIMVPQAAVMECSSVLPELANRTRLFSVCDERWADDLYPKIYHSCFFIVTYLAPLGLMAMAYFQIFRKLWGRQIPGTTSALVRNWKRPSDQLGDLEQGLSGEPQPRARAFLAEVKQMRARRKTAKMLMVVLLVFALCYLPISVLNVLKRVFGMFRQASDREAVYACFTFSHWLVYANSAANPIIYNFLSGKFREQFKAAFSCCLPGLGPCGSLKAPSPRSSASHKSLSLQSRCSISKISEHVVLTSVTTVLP

[9] = target: T2, OX2R (Homo sapiens, UniProt O43614); settings: cited from earlier work
T2 sequence (O43614 1-444): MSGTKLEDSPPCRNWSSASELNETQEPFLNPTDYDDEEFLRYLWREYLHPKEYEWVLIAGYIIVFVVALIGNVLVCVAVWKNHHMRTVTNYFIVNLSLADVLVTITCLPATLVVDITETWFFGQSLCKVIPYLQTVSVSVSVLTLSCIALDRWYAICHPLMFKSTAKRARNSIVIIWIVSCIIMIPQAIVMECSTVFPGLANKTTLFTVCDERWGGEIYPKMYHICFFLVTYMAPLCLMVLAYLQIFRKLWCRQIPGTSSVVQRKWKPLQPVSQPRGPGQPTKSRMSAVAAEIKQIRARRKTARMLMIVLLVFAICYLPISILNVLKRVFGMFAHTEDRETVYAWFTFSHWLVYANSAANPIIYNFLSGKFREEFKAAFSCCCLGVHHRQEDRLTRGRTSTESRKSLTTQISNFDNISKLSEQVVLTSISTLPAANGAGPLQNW

[10] = test system: putative glutamatergic LHb neurons; test: Slice optogenetic stimulation of LHb GAD2 neurons recording; format: cell-based, mouse
[11] = three days of RI, daily I.P. 30 min before test, EMPA 30 mg/kg, seltorexant 20 mg/kg, suvorexant 20 mg/kg

For `CCN(Cc1cccnc1)C(=O)CN(c1ccc(OC)nc1)S(=O)(=O)c1ccccc1C` [EMPA, N-ethyl-2-[(6-methoxy-pyridin-3-yl)-(toluene-2-sulphonyl)-amino]-N-pyridin-3-ylmethyl-acetamide], the “time spent with each mouse compared to vehicle treatment (social recognition, FIG. 18A)” value [1] was “did not alter”, the “time spent with each object compared to vehicle treatment (spatial memory, object placement, FIG. 18B)” value [2] was “did not alter” and the “aggression CPP” value [3] was “reduced”. The “attack duration in RI test” value ([4]; EMPA 30 mg/kg I.P. 25 min before test, vs vehicle, within-subjects) was “reduced”, the “aggression (in RI)” value ([4]; systemic EMPA, 30 mg/kg, acute) was “reduces aggression; also recorded: reduced” and the “effects of OxR2 antagonism on aggression, EMPA versus seltorexant” value ([5]; over the three days of RI) was “virtually indistinguishable”. For the same compound, the latency to attack [5, 11] was “increased”, the “total duration of attack” value [5, 11] was “reduced” and the “time spent with each object compared to vehicle treatment (object recognition memory, FIG. 18C)” value [6] was “did not alter”.

For `Cc1cc(C)nc(N2CC3CN(C(=O)c4c(F)cccc4-n4nccn4)CC3C2)n1` (stereo not shown) [seltorexant], the “time spent with each mouse compared to vehicle treatment (social recognition, FIG. 18A)” value [1] is listed as “did not alter”, the abuse potential [7] is listed as “low abuse potential” and the “time spent with each object compared to vehicle treatment (spatial memory, object placement, FIG. 18B)” value [2] is listed as “did not alter”. The “effects of OxR2 antagonism on aggression, EMPA versus seltorexant” value ([5]; mouse, in vivo) was “virtually indistinguishable”, the latency to attack ([5]; mouse, in vivo) was “increased” and the “total duration of attack” value ([5]; mouse, in vivo) was “reduced”. The “time spent with each object compared to vehicle treatment (object recognition memory, FIG. 18C)” value [6] was “did not alter”.

For `Cc1ccc(-n2nccn2)c(C(=O)N2CCN(c3nc4cc(Cl)ccc4o3)CC[C@H]2C)c1` [suvorexant], the abuse potential [7] is listed as “low abuse potential”, the “tolerability in patient populations” value ([7]; variety of patient populations) is listed as “well tolerated” and the “reduction / attenuation of aggressive behavior” value ([5]; RI test, doses tested) is listed as “some attenuation of aggression”. The “number of mice that attacked, drug vs vehicle” value ([5]; any day of RI, suvorexant 20 mg/kg I.P., SR-9659 I.P.) was “no differences”, the latency to attack [5, 11] was “only altered attack latency and duration on day 3” and the “total duration of attack” value [5, 11] was “only altered attack latency and duration on day 3”.

For orexin-B, the “potency in activating OX1R relative to orexin-A” value [8] is given as 10 fold and the “potency towards OX2R relative to orexin-A” value [9] is given as “equipotent”.

In the case of picrotoxin, the “optically elicited monosynaptic inhibitory currents in putative glutamatergic LHb neurons” value [10] is reported as “completely blocked”.

— patent US20210169883A1, “METHOD OF TREATING AGGRESSION WITH OREXIN RECEPTOR ANTAGONISTS” (Icahn School of Medicine at Mount Sinai, priority 2018, published 2021)
